Test results: patent US12583855B2, “RET selective inhibitor, preparation method therefor and use thereof” (SHOUYAO HOLDINGS (BEIJING) CO., LTD., priority 2019, dated 2026)

Target: T1, RET^WT (Homo sapiens, UniProt P07949)
T1 construct: GST-RET^WT (658-1114 aa, final concentration of 0.5 nM)
T1 sequence (P07949 658-1114): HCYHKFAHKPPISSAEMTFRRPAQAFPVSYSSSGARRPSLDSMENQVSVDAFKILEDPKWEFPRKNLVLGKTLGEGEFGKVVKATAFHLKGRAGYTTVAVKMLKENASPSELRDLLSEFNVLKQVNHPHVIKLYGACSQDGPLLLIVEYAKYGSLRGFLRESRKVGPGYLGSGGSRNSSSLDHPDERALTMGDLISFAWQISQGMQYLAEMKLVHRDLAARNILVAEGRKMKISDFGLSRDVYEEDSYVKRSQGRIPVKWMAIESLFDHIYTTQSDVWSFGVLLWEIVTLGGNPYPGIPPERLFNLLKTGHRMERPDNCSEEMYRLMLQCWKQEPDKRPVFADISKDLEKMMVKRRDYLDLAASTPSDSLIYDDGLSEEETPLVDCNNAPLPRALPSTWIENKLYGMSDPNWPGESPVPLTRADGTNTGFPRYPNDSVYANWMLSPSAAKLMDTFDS
Test: In vitro enzymatic activity assay on RET^WT (HTRF)
Type: biochemical
Conditions: GST-RET^WT (658-1114 aa) 0.5 nM, ATP 25 μM
Protocol: 1. In Vitro Enzymatic Activity Assay for Compounds on RET^WT
The compounds were diluted 5-fold with 100% DMSO starting from 0.2 mM (7 concentrations in total), and 2 μL of each concentration was added to 48 μL of reaction buffer (50 mM HEPES pH7.5, 0.1 mM Na3VO4, 5 mM MgCl2. 1 mM DTT, 0.001% Tween 20, and 100 μg/ml BSA) for dilution and mixing.
The 384-well plate was placed in an incubator and reacted at 23° C. for 2 h before the reaction was stopped by the addition of 5 μL of TK Antibody (purchased from Cisbio) and 5 μL of Streptavidin-XL665 (purchased from Cisbio). […] The enzymatic activity signal of RET^WT was measured at 7 concentrations for each compound and the data were calculated using GraphPad Prism software to obtain the IC50 value for the compound.

SMILES	IC50 [nM]
COc1ncc(CN2C3CC2CN(c2ccc(-c4cc(N5CC(C)(O)C5)cn5ncc(C#N)c45)cn2)C3)cn1 [Example 58, 6-(3-hydroxy-3-methylazetidin-1-yl)-4-(6-(6-((2-methoxypyrimidin-5-yl)methyl)-3,6-diazabicyclo[3.1.1]heptan-3-yl)pyridin-3-yl)pyrazolo[1,5-a]pyridine-3-carbonitrile]	1.34
CS(=O)(=O)c1ccc(CN2CCN(c3ccc(-c4cc(N5CC(C#N)C5)cn5ncc(C#N)c45)cn3)CC2)cc1 [Example 40, 6-(3-cyanoazetidin-1-yl)-4-(6-(4-(4-(methylsulfonyl)benzyl)piperazin-1-yl)pyridin-3-yl)pyrazolo[1,5-α]pyridin-3-carbonitrile]	1.31
CSc1ccc(CN2CCN(c3ccc(-c4cc(-c5cnn(C(F)F)c5)cn5ncc(C#N)c45)cn3)CC2)cc1 [Example 81, 4-(6-(4-(4-(methylthio)benzyl)piperazin-1-yl)pyridin-3-yl)-6-(1-(difluoromethyl)-1Hpyrazol-4-yl)pyrazolo[1,5-a]pyridine-3-carbonitrile]	1.33
CS(=O)(=O)c1ccc(CN2CCN(c3ccc(-c4cc(-c5cnn(C(F)F)c5)cn5ncc(C#N)c45)cn3)CC2)nc1 [Example 80, 6-(1-(difluoromethyl)-1Hpyrazol-4-yl)-4-(6-(4-((5-(methylsulfonyl)pyridin-2-yl)methyl)piperazin-1-yl)pyridin-3-yl) pyrazolo[1,5-a] pyridine-3-carbonitrile]	1.58
CS(=O)(=O)c1ccc(CN2CCN(c3ccc(-c4cc(-c5cnn(C(F)F)c5)cn5ncc(C#N)c45)cn3)CC2)cn1 [Example 63, 6-(1-(difluoromethyl)-1Hpyrazol-4-yl)-4-(6-(4-((6-(methylsulfonyl)pyridin-3-yl)methyl)piperazin-1-yl)pyridin-3-yl)pyrazolo[1,5-a]pyridine-3-carbonitrile]	2.96

Now those with a lower IC50, led by results:

IC50 [nM]	SMILES
0.943	CSc1ccc(CN2CCN(c3ccc(-c4cc(-c5cnn(C(F)F)c5)cn5ncc(C#N)c45)cn3)CC2)cn1 [Example 75, 6-(1-(difluoromethyl)-1Hpyrazol-4-yl)-4-(6-(4-((6-(methylthio)pyridin-3-yl)methyl)piperazin-1-yl)pyridin-3-yl) pyrazolo[1,5-a] pyridine-3-carbonitrile]
0.181	CSc1ccc(CN2C3CC2CN(c2ccc(-c4cc(-c5cnn(C)c5)cn5ncc(C#N)c45)cn2)C3)cn1 [Example 50, 6-(1-methyl-1Hpyrazol-4-yl)-4-(6-(6-((6-(methylthio)pyridin-3-yl)methyl)-3,6-diazabicyclo[3.1.1]heptan-3-yl)pyridin-3-yl)pyrazolo[1,5-a]pyridine-3-carbonitrile]
1.11	COC/C=C/C(=O)N1C2CC1CN(c1ccc(-c3cc(-c4cnn(C(F)F)c4)cn4ncc(C#N)c34)cn1)C2 [Example 62, (E)-6-(1-(difluoromethyl)-1Hpyrazol-4-yl)-4-(6-(6-(4-methoxybut-2-enoyl)-3,6-diazabicyclo[3.1.1]heptan-3-yl)pyridin-3-yl)pyrazolo[1,5-a]pyridine-3-carbonitrile]
0.247	CCn1cc(-c2cc(-c3ccc(N4CC5CC(C4)N5Cc4ccc(S(C)(=O)=O)cc4)nc3)c3c(C#N)cnn3c2)cn1 [Example 44, 6-(1-ethyl-1Hpyrazol-4-yl)-4-(6-(6-(4-(methylsulfonyl)benzyl)-3,6-diazabicyclo[3.1.1]heptan-3-yl)pyridin-3 yl)pyrazolo[1,5-a]pyridine-3-carbonitrile]
